Experimental data reported in US7138361B2, “Herbicidal heterocycles” (E. I. du Pont de Nemours and Company, priority 2000, dated 2006).

Legend:
Type in all cases: in vivo
[1] = system: morning glory (Ipomoea hederacea); experiment: Test B preemergence
Text: (§1) Seeds selected from barnyardgrass (Echinochloa crus-galli), Surinam grass (Brachiaria decumbens), cocklebur (Xanthium strumarium), corn (Zea mays), crabgrass (Digitaria sanguinalis), giant foxtail (Setaria faberii), lambsquarters (Chenopodium album), morning glory (Ipomoea hederacea), pigweed (Amaranthus retroflexus), rice (Oryza saliva) and velvetleaf (Abutilon theophrasti) were planted and treated preemergence with test chemicals formulated in a non-phytotoxic solvent mixture which included a surfactant.
(§2) At the same time, plants selected from these crop and weed species and also blackgrass (Alopecurus myosuroides), wheat (Triticum aestivum) and wild oat (Avena fatua) were treated with postemergence applications of test chemicals formulated in the same manner. Plants ranged in height from 2 to 18 cm (1- to 4-leaf stage) for postemergence treatments. Plant species in the flooded paddy test consisted of rice (Oryza saliva), smallflower flatsedge (Cyperus difformis), duck salad (Heteranthera limosa) and barnyardgrass (Echinochloa crus-galli) grown to the 2-leaf stage for testing. Treated plants and controls were maintained in a greenhouse for 13 to 15 days, after which time all species were compared to controls and visually evaluated. Plant response ratings, summarized in Table B, are based on a scale of 0 to 100 where 0 is no effect and 100 is complete control. A dash (-) response means no test result.

[2] = system: Surinam grass (Brachiaria decumbens); experiment: Test B preemergence
Text: as §1, §2

[3] = system: lambsquarters (Chenopodium album); experiment: Test B preemergence
Text: as §1, §2

rice (Oryza saliva) [4] = experiment: Test B preemergence
Text: as §1, §2

[5] = system: crabgrass (Digitaria sanguinalis); experiment: Test B preemergence
Text: as §1, §2

corn (Zea mays) [6] = experiment: Test B preemergence
Text: as §1, §2

[7] = system: cocklebur (Xanthium strumarium); experiment: Test B preemergence
Text: as §1, §2

[8] = system: giant foxtail (Setaria faberii); experiment: Test B preemergence
Text: as §1, §2

[9] = system: velvetleaf (Abutilon theophrasti); experiment: Test B preemergence
Text: as §1, §2

[10] = system: barnyardgrass (Echinochloa crus-galli); experiment: Test B preemergence
Text: as §1, §2

[11] = system: pigweed (Amaranthus retroflexus); experiment: Test B preemergence
Text: as §1, §2

[12] = system: morning glory (Ipomoea hederacea); experiment: Test B postemergence
Text: as §1, §2

[13] = system: Surinam grass (Brachiaria decumbens); experiment: Test B postemergence
Text: as §1, §2

[14] = system: lambsquarters (Chenopodium album); experiment: Test B postemergence
Text: as §1, §2

wild oat (Avena fatua) = experiment: Test B postemergence
Text: as §1, §2

[15] = system: crabgrass (Digitaria sanguinalis); experiment: Test B postemergence
Text: as §1, §2

corn (Zea mays) [16] = experiment: Test B postemergence
Text: as §1, §2

[17] = system: blackgrass (Alopecurus myosuroides); experiment: Test B postemergence
Text: as §1, §2

[18] = system: wheat (Triticum aestivum); experiment: Test B postemergence
Text: as §1, §2

[19] = system: cocklebur (Xanthium strumarium); experiment: Test B postemergence
Text: as §1, §2

[20] = system: giant foxtail (Setaria faberii); experiment: Test B postemergence
Text: as §1, §2

[21] = system: velvetleaf (Abutilon theophrasti); experiment: Test B postemergence
Text: as §1, §2

[22] = system: barnyardgrass (Echinochloa crus-galli); experiment: Test B postemergence
Text: as §1, §2

[23] = system: pigweed (Amaranthus retroflexus); experiment: Test B postemergence
Text: as §1, §2

[24] = system: duck salad (Heteranthera limosa); experiment: Test C flooded paddy test; settings: for Ducksalad plant response rating: Flooded Paddy, scale 0 to 100, 0 no effect, 100 complete control; for Plant response rating, Ducksalad: flooded paddy test, scale 0 to 100 (0 no effect, 100 complete control)
Protocol: (§3) At the same time, plants selected from these crop and weed species and also winter barley (Hordeum vulgare), blackgrass (Alopecurus myosuroides), canary grass (Phalaris minor), chickweed (Stellaria media), downy brome (Bromus tectorum), green foxtail (Setaria viridis), Italian ryegrass (Lolium multiflorum), wheat (Triticum aestivum), wild oat (Avena fatua) and windgrass (Apera spica-venti) were treated with postemergence applications of some of the test chemicals formulated in the same manner. Plants ranged in height from 2 to 18 cm (1- to 4-leaf stage) for postemergence treatments. Plant species in the flooded paddy test consisted of rice (Oryza saliva), smallflower flatsedge (Cyperus difformis), duck salad (Heteranthera limosa) and barnyardgrass (Echinochloa crus-galli) grown to the 2-leaf stage for testing. Treated plants and controls were maintained in a greenhouse for 12 to 14 days, after which time all species were compared to controls and visually evaluated. Plant response ratings, summarized in Table C, are based on a scale of 0 to 100 where 0 is no effect and 100 is complete control. A dash (-) response means no test result.

[25] = system: smallflower flatsedge (Cyperus difformis); experiment: Test C flooded paddy test; settings: for Flatsedge plant response rating: Flooded Paddy, scale 0 to 100, 0 no effect, 100 complete control; for Plant response rating, Flatsedge: flooded paddy test, scale 0 to 100 (0 no effect, 100 complete control)
Protocol: as §3

rice (Oryza saliva) [26] = experiment: Test C flooded paddy test; settings: for Rice plant response rating: Flooded Paddy, scale 0 to 100, 0 no effect, 100 complete control; for Plant response rating, Rice: flooded paddy test, scale 0 to 100 (0 no effect, 100 complete control)
Protocol: as §3

[27] = system: barnyardgrass (Echinochloa crus-galli); experiment: Test C flooded paddy test; settings: for Barnyardgrass plant response rating: Flooded Paddy, scale 0 to 100, 0 no effect, 100 complete control; for Plant response rating, Barnyardgrass: flooded paddy test, scale 0 to 100 (0 no effect, 100 complete control)
Protocol: as §3

[28] = Preemergence, Rate 500 g/ha, scale 0 to 100, 0 no effect, 100 complete control
[29] = preemergence, Rate 125 g/ha, scale of 0 to 100 where 0 is no effect and 100 is complete control, 13 to 15 days
[30] = Rate 125 g/ha, scale 0 (no effect) to 100 (complete control), 13 to 15 days
[31] = Rate 500 g/ha, scale 0 to 100, 0 is no effect, 100 is complete control, 13 to 15 days
[32] = Rate 125 g/ha, scale 0 to 100, 0 no effect, 100 complete control

SMILES: Cc1cc(N2CCC(n3ccc(C(C)(C)C)n3)C2=O)cc(Br)c1C (centres unmarked) [Compound 77]
- Plant response rating, Morningglory [1, 28]: 0
- Plant response rating, Morningglory [1, 29]: 0
- Plant response rating, Surinam grass [2, 28]: 40
- Plant response rating, Surinam grass [2, 29]: 0
- Plant response rating, Lambsquarters [3, 28]: 100
- Plant response rating, Lambsquarters [3, 29]: 90
- Plant response rating, Rice (rice (Oryza saliva) [4]; [28]): 0
- Plant response rating, Rice (rice (Oryza saliva) [4]; [29]): 0
- Plant response rating, Crabgrass [5, 28]: 90
- Plant response rating, Crabgrass [5, 29]: 60
- Plant response rating, Corn (corn (Zea mays) [6]; [28]): 0
- Plant response rating, Corn (corn (Zea mays) [6]; [29]): 0
- Plant response rating, Cocklebur [7, 28]: 0
- Plant response rating, Cocklebur [7, 29]: 0
- Plant response rating, Foxtail, Giant [8, 28]: 0
- Plant response rating, Foxtail, Giant [8, 29]: 0
- Plant response rating, Velvetleaf [9, 28]: 0
- Plant response rating, Velvetleaf [9, 29]: 0
- Plant response rating, Barnyardgrass [10, 28]: 100
- Plant response rating, Barnyardgrass [10, 29]: 20
- Plant response rating, Pigweed [11, 28]: 100
- Plant response rating, Pigweed [11, 29]: 90
- Plant response rating, Morningglory [12, 30]: 0
- Plant response rating, Morningglory [12, 31]: 0
- Plant response rating, Surinam grass [13, 30]: 0
- Plant response rating, Surinam grass [13, 31]: 0
- Plant response rating, Lambsquarters [14, 30]: 0
- Plant response rating, Lambsquarters [14, 31]: 20
- Plant response rating, Wild Oat (wild oat (Avena fatua); [30]): 0
- Plant response rating, Wild Oat (wild oat (Avena fatua); [31]): 0
- Plant response rating, Crabgrass [15, 30]: 0
- Plant response rating, Crabgrass [15, 31]: 0
- Plant response rating, Corn (corn (Zea mays) [16]; [30]): 0
- Plant response rating, Corn (corn (Zea mays) [16]; [31]): 0
- Plant response rating, Blackgrass [17, 30]: 0
- Plant response rating, Blackgrass [17, 31]: 0
- Plant response rating, Wheat [18, 30]: 0
- Plant response rating, Wheat [18, 31]: 0
- Plant response rating, Cocklebur [19, 30]: 0
- Plant response rating, Cocklebur [19, 31]: 20
- Plant response rating, Foxtail, Giant [20, 30]: 0
- Plant response rating, Foxtail, Giant [20, 31]: 0
- Plant response rating, Velvetleaf [21, 30]: 0
- Plant response rating, Velvetleaf [21, 31]: 0
- Plant response rating, Barnyardgrass [22, 30]: 0
- Plant response rating, Barnyardgrass [22, 31]: 0
- Plant response rating, Pigweed [23, 30]: 70
- Plant response rating, Pigweed [23, 31]: 80
- Ducksalad plant response rating ([24]; Rate 250 g/ha): 0
- Ducksalad plant response rating ([24]; Rate 500 g/ha): 30
- Plant response rating, Ducksalad ([24]; Rate 62 g/ha): 0
- Plant response rating, Ducksalad ([24]; Rate 125 g/ha): 0
- Flatsedge plant response rating ([25]; Rate 250 g/ha): 80
- Flatsedge plant response rating ([25]; Rate 500 g/ha): 80
- Plant response rating, Flatsedge ([25]; Rate 62 g/ha): 70
- Plant response rating, Flatsedge ([25]; Rate 125 g/ha): 70
- Rice plant response rating (rice (Oryza saliva) [26]; Rate 250 g/ha): 0
- Rice plant response rating (rice (Oryza saliva) [26]; Rate 500 g/ha): 30
- Plant response rating, Rice (rice (Oryza saliva) [26]; Rate 62 g/ha): 0
- Plant response rating, Rice (rice (Oryza saliva) [26]; Rate 125 g/ha): 0
- Barnyardgrass plant response rating ([27]; Rate 250 g/ha): 0
- Barnyardgrass plant response rating ([27]; Rate 500 g/ha): 20
- Plant response rating, Barnyardgrass ([27]; Rate 62 g/ha): 0
- Plant response rating, Barnyardgrass ([27]; Rate 125 g/ha): 0

SMILES: CCCCC(CCCC)c1ccn(C2SCN(c3cccc(C(F)(F)F)c3)C2=O)n1 (centres unmarked) [Compound 116]
- Plant response rating, Morningglory [1, 28]: 0
- Plant response rating, Morningglory [1, 29]: 0
- Plant response rating, Surinam grass [2, 28]: 0
- Plant response rating, Surinam grass [2, 29]: 0
- Plant response rating, Lambsquarters [3, 28]: 0
- Plant response rating, Lambsquarters [3, 29]: 0
- Plant response rating, Rice (rice (Oryza saliva) [4]; [28]): 0
- Plant response rating, Rice (rice (Oryza saliva) [4]; [29]): 0
- Plant response rating, Crabgrass [5, 28]: 0
- Plant response rating, Crabgrass [5, 29]: 0
- Plant response rating, Corn (corn (Zea mays) [6]; [28]): 0
- Plant response rating, Corn (corn (Zea mays) [6]; [29]): 0
- Plant response rating, Cocklebur [7, 28]: 0
- Plant response rating, Cocklebur [7, 29]: 0
- Plant response rating, Foxtail, Giant [8, 28]: 0
- Plant response rating, Foxtail, Giant [8, 29]: 0
- Plant response rating, Velvetleaf [9, 28]: 0
- Plant response rating, Velvetleaf [9, 29]: 0
- Plant response rating, Barnyardgrass [10, 28]: 0
- Plant response rating, Barnyardgrass [10, 29]: 0
- Plant response rating, Pigweed [11, 28]: 0
- Plant response rating, Pigweed [11, 29]: 0
- Plant response rating, Morningglory [12, 32]: 30
- Plant response rating, Morningglory [12, 31]: 30
- Plant response rating, Surinam grass [13, 32]: 0
- Plant response rating, Surinam grass [13, 31]: 20
- Plant response rating, Lambsquarters [14, 32]: 70
- Plant response rating, Lambsquarters [14, 31]: 90
- Plant response rating, Wild Oat (wild oat (Avena fatua); [32]): 30
- Plant response rating, Wild Oat (wild oat (Avena fatua); [31]): 50
- Plant response rating, Crabgrass [15, 32]: 20
- Plant response rating, Crabgrass [15, 31]: 40
- Plant response rating, Corn (corn (Zea mays) [16]; [32]): 20
- Plant response rating, Corn (corn (Zea mays) [16]; [31]): 20
- Plant response rating, Blackgrass [17, 32]: 0
- Plant response rating, Blackgrass [17, 31]: 60
- Plant response rating, Wheat [18, 32]: 20
- Plant response rating, Wheat [18, 31]: 20
- Plant response rating, Cocklebur [19, 32]: 30
- Plant response rating, Cocklebur [19, 31]: 50
- Plant response rating, Foxtail, Giant [20, 32]: 0
- Plant response rating, Foxtail, Giant [20, 31]: 0
- Plant response rating, Velvetleaf [21, 32]: 20
- Plant response rating, Velvetleaf [21, 31]: 30
- Plant response rating, Barnyardgrass [22, 32]: 0
- Plant response rating, Barnyardgrass [22, 31]: 20
- Plant response rating, Pigweed [23, 32]: 50
- Plant response rating, Pigweed [23, 31]: 70
- Ducksalad plant response rating ([24]; Rate 250 g/ha): 0
- Ducksalad plant response rating ([24]; Rate 500 g/ha): 0
- Plant response rating, Ducksalad ([24]; Rate 62 g/ha): 0
- Plant response rating, Ducksalad ([24]; Rate 125 g/ha): 0
- Flatsedge plant response rating ([25]; Rate 250 g/ha): 0
- Flatsedge plant response rating ([25]; Rate 500 g/ha): 0
- Plant response rating, Flatsedge ([25]; Rate 62 g/ha): 0
- Plant response rating, Flatsedge ([25]; Rate 125 g/ha): 0
- Rice plant response rating (rice (Oryza saliva) [26]; Rate 250 g/ha): 0
- Rice plant response rating (rice (Oryza saliva) [26]; Rate 500 g/ha): 0
- Plant response rating, Rice (rice (Oryza saliva) [26]; Rate 62 g/ha): 0
- Plant response rating, Rice (rice (Oryza saliva) [26]; Rate 125 g/ha): 0
- Barnyardgrass plant response rating ([27]; Rate 250 g/ha): 0
- Barnyardgrass plant response rating ([27]; Rate 500 g/ha): 0
- Plant response rating, Barnyardgrass ([27]; Rate 62 g/ha): 0
- Plant response rating, Barnyardgrass ([27]; Rate 125 g/ha): 0
